In patent publication US8580733B2, “Site-specific monoconjugated insulinotropic GLP-1 peptides” (Bio-Ker SRL, priority 2008, dated 2013):
Ends that are not written are not given here.

How the values were obtained:
[1] = target: T1, DPP-IV (Dipeptidyl peptidase IV from porcine kidney) (Sus scrofa, UniProt P22411); test: In vitro stability to DPP-IV digestion; format: in vitro ADME; settings: for Degradation % at 24 h: peptide 0.1 mg/ml in PBS
T1 construct: purchased Sigma; host or cells: porcine kidney (tissue-derived)
T1 sequence (P22411 whole entry): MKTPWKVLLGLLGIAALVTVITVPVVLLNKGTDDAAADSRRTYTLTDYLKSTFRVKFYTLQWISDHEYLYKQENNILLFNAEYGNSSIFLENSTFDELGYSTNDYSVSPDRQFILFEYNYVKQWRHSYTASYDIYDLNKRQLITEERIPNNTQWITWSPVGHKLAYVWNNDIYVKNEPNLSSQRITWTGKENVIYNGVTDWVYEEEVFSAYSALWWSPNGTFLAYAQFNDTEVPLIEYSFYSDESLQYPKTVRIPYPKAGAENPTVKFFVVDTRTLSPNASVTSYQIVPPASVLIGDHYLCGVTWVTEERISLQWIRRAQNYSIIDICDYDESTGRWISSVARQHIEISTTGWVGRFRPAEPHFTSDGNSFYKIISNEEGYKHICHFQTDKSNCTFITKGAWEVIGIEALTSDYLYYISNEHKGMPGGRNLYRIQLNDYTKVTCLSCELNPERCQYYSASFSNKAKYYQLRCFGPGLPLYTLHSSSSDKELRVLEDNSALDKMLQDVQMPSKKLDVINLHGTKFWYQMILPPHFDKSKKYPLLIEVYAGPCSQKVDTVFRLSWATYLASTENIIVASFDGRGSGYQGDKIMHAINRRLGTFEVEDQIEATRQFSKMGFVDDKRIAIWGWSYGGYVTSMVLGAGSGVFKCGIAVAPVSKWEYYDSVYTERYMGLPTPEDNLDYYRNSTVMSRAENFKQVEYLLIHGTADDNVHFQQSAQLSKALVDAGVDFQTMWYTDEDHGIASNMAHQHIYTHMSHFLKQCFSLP
Description: The enzymatic degradation was calculated from His-Ala title of each sample, as shown for example in FIG. 1

[2] = tested on: diabetic (db/db) mice; test: Oral glucose tolerance test in diabetic mice; format: in vivo; settings: for Tglu<100 mg/dl (time to lower the blood glucose level under 100 (±5) mg/dl) / Glumax (maximum blood glucose level) / HD% control (total hypoglycemic degree as percent of saline control): 100 μg/kg 30 min before oral glucose […]; for Glumax (maximum blood glucose level): first 180 min; for HD% control (total hypoglycemic degree as percent of saline control): AUC 0-180 min vs saline
Description: Food was withdrawn for an 18-h period prior to and for 3 hours after oral administration of a glucose solution (1.5 g/kg body weight); food was again […] 6 hours after glucose administration. 40 μg/ml of products to be tested and negative control (phosphate buffered saline) were administered by subcutaneous injection of a volume of 2.5 ml/kg body weight, 30 minutes prior glucose administration. Blood samples were collected from the tail vein of conscious mice before the injection and at 15, 30, 60, 120, 180, 240, 300, 1440 min post injection and glucose concentration was measured by gluco tester Ascensia Elite (Bayer).

For `CC[C@H](C)[C@H](NC(=O)[C@H](Cc1ccccc1)NC(=O)[C@H](CCC(=O)O)NC(=O)[C@H](CCCCN)NC(=O)[C@H](C)NC(=O)[C@H](C)NC(=O)[C@H](CCC(N)=O)NC(=O)CNC(=O)[C@H](CCC(=O)O)NC(=O)[C@H](CC(C)C)NC(=O)[C@H](Cc1ccc(O)cc1)NC(=O)[C@H](CO)NC(=O)[C@H](CO)NC(=O)[C@@H](NC(=O)[C@H](CC(=O)O)NC(=O)[C@H](CO)NC(=O)[C@@H](NC(=O)[C@H](Cc1ccccc1)NC(=O)[C@@H](NC(=O)CNC(=O)[C@H](CCC(=O)O)NC(=O)[C@H](C)NC(=O)[C@@H](N)Cc1c[nH]cn1)[C@@H](C)O)[C@@H](C)O)C(C)C)C(=O)N[C@@H](C)C(=O)N[C@@H](Cc1c[nH]c2ccccc12)C(=O)N[C@@H](CC(C)C)C(=O)N[C@H](C(=O)N[C@@H](CCCCN)C(=O)NCC(=O)N[C@@H](CCCNC(=N)N)C(N)=O)C(C)C` [GLP-1-amide, GLP-1(7-36)-amide, reference compound], which “Degradation % (at 8 h)” value ([1]; DPP-IV 5 U/ml, 37° C., at 8 h) is on record?
Its value is 100 (at 8 h) %.

And the “inactivation by cleavage of the N-terminal dipeptide” value ([1]; DPP-IV, after 8 hours at 37° C.)?
The value was “completely inactivated”.

How did the “Degradation % at 24 h” value ([1]; DPP-IV 5 U/ml, 37° C.) turn out when “GLP-1-amide-Q17-PEG 20 kDa: GLP-1-amide monopegylated on glutamine 17 with 20 kDa m-PEG-amine by microbial transglutaminase” was run?
Its value is 37%.

And the “final biological efficacy compared with exenatide” value [2]?
The value was “comparable or better than the one displayed by exenatide”.

And the “Tglu<100 mg/dl (time to lower the blood glucose level under 100 (±5) mg/dl)” value [2]?
The value was 60 min.

And the “Glumax (maximum blood glucose level)” value [2]?
Its value is 213.9 mg/dL.

What about the “HD% control (total hypoglycemic degree as percent of saline control)” value [2] of the same molecule?
Its value is 58.3%.

Which “Degradation % at 24 h” value ([1]; DPP-IV 5 U/ml, 37° C.) does the source give for “GLP-1-amide-Q17-PEG 30 kDa: GLP-1-amide monopegylated on glutamine 17 with 30 kDa m-PEG-amine by microbial transglutaminase” here?
The value was 25%.

What about the “final biological efficacy compared with exenatide” value [2] of the same molecule?
The value was “comparable or better than the one displayed by exenatide”.

And the “Tglu<100 mg/dl (time to lower the blood glucose level under 100 (±5) mg/dl)” value [2]?
The value was 60 min.

What about the “Glumax (maximum blood glucose level)” value [2] of the same molecule?
The value was 167.7 mg/dL.

What about the “HD% control (total hypoglycemic degree as percent of saline control)” value [2] of the same molecule?
The value was 63.5%.

How did the “Degradation % at 24 h” value ([1]; DPP-IV 5 U/ml, 37° C.) turn out when “GLP-1-amide-Q17N/A24Q-PEG 20 kDa: Q17N/A24Q-GLP-1-amide monopegylated on glutamine 24 with 20 kDa m-PEG-amine by microbial transglutaminase (HAEGTFTSDVSSYLEGNAAKEFIQ(PEG 20 kDa)WLVKGRG-NH2; UniProt P01275 98-128, looked up, variant Q17N A24Q)” was run?
Its value is 41%.

Which “Degradation % at 24 h” value ([1]; DPP-IV 5 U/ml, 37° C.) does the source give for “HAEGTFTSDVSSYLEGNAAKEFIQWLVKGR-NH2 [GLP-1-amide-Q17N/A24Q]” here?
Its value is 90%.
